Reference: the Deep4Chem optical property database

Assay: solvent given as SMILES

With O=C1/C(=C/C=C/c2cc3c4c(c2)CCCN4CCC3)CC/C1=C\C=C\c1cc2c3c(c1)CCCN3CCC2 the absorption maximum (in CC#N) was 510 nm, the absorption maximum (in CC(C)=O) was 515 nm and the absorption maximum (in CC(C)O) was 535 nm. It also gave an absorption maximum (in CCCCCC) of 457 nm, an absorption maximum (in CCCCO) of 543 nm and an absorption maximum (in CCCO) of 541 nm. It also gave an absorption maximum (in CCO) of 538 nm, an absorption maximum (in CCOC(C)=O) of 495 nm and an absorption maximum (in CCOCC) of 494 nm. For the same compound, the absorption maximum (in CN(C)C=O) was 532 nm, the absorption maximum (in CO) was 523 nm and the absorption maximum (in CS(C)=O) was 539 nm. For the same compound, the absorption maximum (in Cc1ccccc1) was 505 nm, the absorption maximum (in ClCCl) was 529 nm and the absorption maximum (in OCC(F)(F)F) was 584 nm. The absorption maximum (in S=C=S) was 530 nm, the absorption maximum (in c1ccccc1) was 510 nm and the absorption maximum (in c1ccncc1) was 534 nm.

Compound O=C1Nc2ccccc2/C1=C/C(=O)c1ccc(Cl)cc1Cl has an absorption maximum (in C1CCCCC1) of 336 nm, an absorption maximum (in C1COCCO1) of 337 nm and an absorption maximum (in CC#N) of 334 nm. It also gave an absorption maximum (in CC(C)(C)O) of 339 nm, an absorption maximum (in CC(C)O) of 339 nm and an absorption maximum (in CCCCCC) of 334 nm. The absorption maximum (in CCCCO) was 341 nm, the absorption maximum (in CCOC(C)=O) was 335 nm and the absorption maximum (in CN(C)C=O) was 340 nm. It also gave an absorption maximum (in CO) of 339 nm, an absorption maximum (in ClCCl) of 339 nm and an absorption maximum (in O) of 340 nm.

With C(#Cc1ccc2ccc3cccc4ccc1c2c34)c1ccccc1 the absorption maximum (in Cc1ccccc1) was 362 nm.

Work on CN(C)c1cccc2c1C(=O)c1ccccc1-2 yielded an absorption maximum (in C1CCCCC1) of 433 nm, an absorption maximum (in CC#N) of 444 nm and an absorption maximum (in CCO) of 449 nm. The absorption maximum (in c1ccccc1) was 445 nm.

In the case of Cc1cc(C)c(N(c2ccccc2)c2ccc(S(=O)(=O)c3ccc(S(=O)(=O)c4ccc(N(c5ccccc5)c5c(C)cc(C)cc5C)cc4)cc3)cc2)c(C)c1, the absorption maximum (in Cc1ccccc1) is reported as 351 nm.

In the case of c1ccc(C2(c3ccccc3)c3ccccc3N(c3ccc(-c4nc([C@]56CC7CC(C[C@@H](C7)C5)C6)nc([C@]56C[C@H]7C[C@@H](C[C@H](C7)C5)C6)n4)cc3)c3ccccc32)cc1, the absorption maximum (in Cc1ccccc1) is reported as 367.02 nm.

Work on C1=Cc2ccccc2C(=Cc2ccc(-c3cc(-c4ccc(C=C5c6ccccc6C=Cc6ccccc65)cc4)cc(-c4ccc(C=C5c6ccccc6C=Cc6ccccc65)cc4)c3)cc2)c2ccccc21 yielded an absorption maximum (in C1CCOC1) of 325 nm.

With COC(=O)C1(C(=O)OC)Cc2c(C#Cc3ccc(OC)cc3)c(-c3ccc(OC)cc3)c3c(-c4ccccc4)c(-c4ccccc4)c(-c4ccccc4)c(-c4ccccc4)c3c2C1 the absorption maximum (in C1CCOC1) was 348.89 nm.

Compound CC1(C)c2ccccc2N(c2ccc3c(c2)Oc2ccccc2P3(=O)c2ccccc2)c2ccccc21 (stereo unspecified) has an absorption maximum (in Cc1ccccc1) of 348 nm.

For CN(C)c1ccc(C#Cc2ccc(C=O)cc2)cc1, the absorption maximum (in C1CCCCC1) was 381.5 nm, the absorption maximum (in C1CCOC1) was 379.51 nm and the absorption maximum (in C1COCCO1) was 375.01 nm. It also gave an absorption maximum (in CC1CCCO1) of 382 nm, an absorption maximum (in CC#N) of 375.01 nm and an absorption maximum (in CC(C)=O) of 388 nm. It also gave an absorption maximum (in CC(C)CC(C)(C)C) of 383.49 nm, an absorption maximum (in CC(C)O) of 380.5 nm and an absorption maximum (in CCCCCCCCCCCCCCCC) of 383 nm. The absorption maximum (in CCCCCCCCCCCCCCCCCl) was 390 nm, the absorption maximum (in CCOC(C)=O) was 375.01 nm and the absorption maximum (in CCOCC) was 372.49 nm. It also gave an absorption maximum (in CN(C)C=O) of 379.51 nm, an absorption maximum (in CO) of 380.5 nm and an absorption maximum (in CS(C)=O) of 387 nm. For the same compound, the absorption maximum (in Cc1ccccc1) was 381.5 nm.

For N#Cc1cc(-c2ccc(N3c4ccccc4Oc4ccccc43)cc2)c(-c2ccc(N3c4ccccc4Oc4ccccc43)cc2)cc1C#N, the absorption maximum (in Cc1ccccc1) was 406 nm.

With CN(C)c1cc(-c2ccc(C#Cc3ccccc3)cc2)cc2ccccc12 the absorption maximum (in CC#N) was 302.58 nm, the absorption maximum (in CCO) was 300.29 nm and the absorption maximum (in ClCCl) was 304 nm.

With COc1nc(Cl)nc(Nc2ccc3c4c(cccc24)C(=O)c2ccccc2-3)n1 the absorption maximum (in CC#N) was 407 nm, the absorption maximum (in CC(C)=O) was 410 nm and the absorption maximum (in CC(C)O) was 417.01 nm. For the same compound, the absorption maximum (in CCOC(C)=O) was 411.02 nm, the absorption maximum (in CO) was 414.94 nm and the absorption maximum (in Cc1ccccc1) was 419.99 nm. It also gave an absorption maximum (in Clc1ccccc1) of 418.06 nm, an absorption maximum (in N#Cc1ccccc1) of 415.97 nm and an absorption maximum (in O=C1CCCCC1) of 414.94 nm.

With O=C(c1ccc(-n2c3ccccc3c3ccccc32)cc1)c1ccc(-n2c3ccccc3c3ccccc32)cc1 the absorption maximum (in Cc1ccccc1) was 340 nm.

With N#C/C(=C\c1ccc(Cl)cc1)c1nc2ccccc2s1 the absorption maximum (in C1CCCCC1) was 350 nm and the absorption maximum (in CO) was 350 nm.

With N#CC1N=c2cc3c4c(cccc4c2=NC1C#N)C(c1ccccc1)=C(c1ccccc1)O3 (stereo unspecified) the absorption maximum (in ClCCl) was 501 nm.

In the case of c1cc2oc3cccc4oc5cccc6oc(c1)c2[c+](c34)c65, the absorption maximum (in CC#N) is reported as 481 nm.

With C/C(=C\c1ccc(C)cc1)c1nc2ccccc2o1 the absorption maximum (in C1CCCCC1) was 315 nm and the absorption maximum (in CO) was 315 nm.

With c1cc2cc(c1)c1ccc3ccc4ccc(cc4c3c1)c1ccc3ccc4ccc(cc4c3c1)c1cccc2c1 the absorption maximum (in Cc1ccccc1) was 355 nm.

Compound CC1=CC(C)=[N+]2C1=C(c1ccc(N3CCOCC3)cc1)c1c(C)cc(C)n1[B-]2(F)F has an absorption maximum (in C1CCOC1) of 500 nm, an absorption maximum (in CC#N) of 496 nm and an absorption maximum (in CC(=O)C(C)(C)C) of 495 nm. It also gave an absorption maximum (in CC(C)=O) of 490 nm, an absorption maximum (in CCCCCC) of 498 nm and an absorption maximum (in CCOC(C)=O) of 498 nm. It also gave an absorption maximum (in CO) of 494 nm.

With Cc1ccc(-c2cc(C)[o+]c(C)c2)cc1 the absorption maximum (in CC#N) was 347 nm and the absorption maximum (in ClCCl) was 365 nm.

Work on COC(=O)c1ccc(C#Cc2ccccc2)cc1 yielded an absorption maximum (in C1CCCCC1) of 316.6 nm, an absorption maximum (in CC#N) of 311.6 nm and an absorption maximum (in CC(C)O) of 313.8 nm. The absorption maximum (in CCCCCC) was 314.8 nm, the absorption maximum (in CCCCCCCCCCCCCCCC) was 317.3 nm and the absorption maximum (in CCCCCCCCCCCCCCCCCl) was 317.2 nm. For the same compound, the absorption maximum (in CO) was 311.8 nm.

CC(C)c1cccc(C(C)C)c1-n1c(=O)c2cc3nc(-c4ccccc4)c4cc5c(=O)n(-c6c(C(C)C)cccc6C(C)C)c(=O)c6cc7nc(-c8ccccc8)c8cc(c1=O)c2c1c3c4c(c65)c7c81 gave an absorption maximum (in ClC(Cl)Cl) of 488 nm.

With COc1ccc(-c2c3nc(c(-c4ccc(OC)cc4)c4ccc([nH]4)c(-c4ccc(OC)cc4)c4nc(c(-c5ccc(OC)cc5)c5ccc2[nH]5)C=C4N2CCOCC2)C=C3)cc1 the absorption maximum (in CS(C)=O) was 660 nm.

Compound FC(F)(F)c1ccc(-c2ccc(-c3cc(-c4ccccn4)nc(-c4ccccn4)c3)cc2)cc1 has an absorption maximum (in ClCCl) of 289 nm.

Compound CCC1(CC)c2cc(C#Cc3cc(C#Cc4ccc5c(c4)C(CC)(CC)c4cc(N(c6ccccc6)c6ccccc6)ccc4-5)c4ccc5c(C#Cc6ccc7c(c6)C(CC)(CC)c6cc(N(c8ccccc8)c8ccccc8)ccc6-7)cc(C#Cc6ccc7c(c6)C(CC)(CC)c6cc(N(c8ccccc8)c8ccccc8)ccc6-7)c6ccc3c4c65)ccc2-c2ccc(N(c3ccccc3)c3ccccc3)cc21 has an absorption maximum (in C1CCCCC1) of 500 nm, an absorption maximum (in C1CCOC1) of 506 nm and an absorption maximum (in CCOC(C)=O) of 502 nm. The absorption maximum (in CN(C)C=O) was 506 nm, the absorption maximum (in Cc1ccccc1) was 503 nm and the absorption maximum (in ClC(Cl)Cl) was 503 nm. The absorption maximum (in ClCCl) was 504 nm.

In the case of CC(C)(C)c1ccc2oc3nc4oc5ccc(N6c7ccccc7Oc7ccccc76)cc5c4cc3c2c1, the absorption maximum (in ClC(Cl)Cl) is reported as 347 nm.

In the case of CCCCCCCCCCc1cc(-c2cc(CCCCCCCCCC)c(-c3cccs3)s2)sc1-c1cccs1, the absorption maximum (in CCCCCCCCCCCCCC) is reported as 380 nm.

With CC[Si](C)(C)c1cc2ccc3cccc4ccc(c1C(=O)NC(C)(C)C)c2c34 the absorption maximum (in ClC(Cl)Cl) was 381 nm.

C[Si]1(C)c2ccc(-c3ccc(N(c4ccccc4)c4ccccc4)cc3)cc2C=Cc2cc(-c3ccc(N(c4ccccc4)c4ccccc4)cc3)ccc21 gave an absorption maximum (in ClCCl) of 390 nm.

O=C1c2ccccc2NC(c2ccccc2)N1Cc1ccccc1 (stereo unspecified) gave an absorption maximum (in CC#N) of 337 nm, an absorption maximum (in CCCCCCCCCCCCCCCC) of 325 nm and an absorption maximum (in CO) of 345 nm. The absorption maximum (in ClC(Cl)Cl) was 336 nm and the absorption maximum (in c1ccccc1) was 334 nm.

Compound COc1ccc(C2=C/C(=C\c3ccccc3)C(=O)O2)cc1OC has an absorption maximum (in C1COCCO1) of 406 nm.

CCn1ncc2c3c(C#N)c4c5ccccc5n(C)c4nc3ccc21 gave an absorption maximum (in CCOC(C)=O) of 383 nm.

With COc1ccc(C#Cc2ncc(-c3ccccc3)o2)cc1OC the absorption maximum (in ClCCl) was 330 nm.

With CCOC(=O)C1=C(N)n2c(=O)c3ccccc3c(=O)n2C1c1ccccc1 (stereo unspecified) the absorption maximum (in CS(C)=O) was 364 nm.

Compound Cc1cc(C)c(C)c(-c2ccc3cc(C)c(=O)oc3c2)c1C has an absorption maximum (in C1CCCCC1) of 312 nm, an absorption maximum (in CC#N) of 314 nm and an absorption maximum (in CO) of 315 nm.

In the case of N#Cc1ccccc1N1c2sc3ccccc3c2Sc2c1sc1ccccc21, the absorption maximum (in ClCCl) is reported as 411 nm.

Compound CC1=[N+]2C(=C(c3ccccc3)c3c4c5ccccc5c5ccccc5c4c(C)n3[B-]2(F)F)c2c1c1ccccc1c1ccccc21 has an absorption maximum (in CCCCCC) of 630 nm.

O=S(=O)(c1ccc2c(c1)c1ccccc1n2-c1ccccc1)c1ccc2c(c1)c1ccccc1n2-c1ccccc1 gave an absorption maximum (in ClCCl) of 290 nm.

Compound C(=C\c1c2ccccc2cc2ccccc12)/c1cccc2ccccc12 has an absorption maximum (in CC1CCCCC1) of 386 nm and an absorption maximum (in CC#N) of 386 nm.

For CN(C)c1ccc(-c2ccc(/C=C/c3ccncn3)cc2)cc1, the absorption maximum (in ClCCl) was 386 nm.

Work on CCCC1(CCC)c2ccccc2-c2ccccc21 yielded an absorption maximum (in C1CCCCC1) of 304 nm.

In the case of COc1cc2oc(=O)c3c4ccc(C=O)cc4c4ccc5cccc6c(c1)c2c3c4c56, the absorption maximum (in C1CCOC1) is reported as 425 nm.

For CCCCCCCCC1(CCCCCCCC)c2cc(C=O)ccc2-c2ccc(/C=C/c3ccc(N(c4ccccc4)c4ccccc4)cc3)cc21, the absorption maximum (in C1CCOC1) was 406 nm, the absorption maximum (in C1COCCO1) was 411 nm and the absorption maximum (in CC#N) was 406 nm. For the same compound, the absorption maximum (in CC(C)=O) was 409 nm, the absorption maximum (in CCCCCC) was 405 nm and the absorption maximum (in CCOC(C)=O) was 409 nm. It also gave an absorption maximum (in CN(C)C=O) of 410 nm, an absorption maximum (in CS(C)=O) of 408 nm and an absorption maximum (in Cc1ccccc1) of 411 nm. It also gave an absorption maximum (in ClC(Cl)Cl) of 409 nm and an absorption maximum (in ClCCl) of 411 nm.

CCCCOc1c(OC)cc2cc(OC)c(OCCCC)c3c4c(OCCCC)c(OC)cc5cc(OC)c(OCCCC)c(c1c23)c54 gave an absorption maximum (in ClCCl) of 451 nm.

In the case of COc1cc(Br)cc2cc(-c3cc4cc(Br)cc(OC)c4oc3=O)oc12, the absorption maximum (in CC#N) is reported as 353 nm, the absorption maximum (in CCOC(C)=O) is reported as 355 nm and the absorption maximum (in CS(C)=O) is reported as 359 nm. For the same compound, the absorption maximum (in Cc1ccccc1) was 360 nm and the absorption maximum (in O) was 359 nm.

CC(C)(C)NC(=O)c1cccc2ccc3c4ccccc4c4ccccc4c3c12 showed an absorption maximum (in ClCCl) of 332 nm.

With CCOC(=O)c1c(-c2c(Cl)c3cc(C)ccc3oc2=O)nn(-c2cccc(C)c2)c1C(=O)OCC the absorption maximum (in ClCCl) was 331 nm.
